# Measurements taken from ChEMBL document CHEMBL2413072, “Synthesis and in vitro anticancer studies of novel C-2 arylidene congeners of lantadenes” (2013).
# What was measured:
# Format in all cases: functional
# HCT-116 [1] = assay: Growth inhibition of human HCT116 cells by sulforhodamine B assay
# HOP-62 = assay: Growth inhibition of human HOP62 cells by sulforhodamine B assay
# HOP-92 = assay: Growth inhibition of human HOP92 cells by sulforhodamine B assay
# MDA-MB-435 = assay: Growth inhibition of human MDA-MB-435 cells assessed as cell growth at 10^-8 M by sulforhodamine B assay; conditions: read-out: Activity
# Malme-3M = assay: Growth inhibition of human MALME-3M cells assessed as cell growth at 10^-8 M by sulforhodamine B assay; conditions: read-out: Activity
# SW-620 = assay: Growth inhibition of human SW620 cells assessed as cell growth at 10^-8 M by sulforhodamine B assay; conditions: read-out: Activity
# HCT-15 = assay: Growth inhibition of human HCT15 cells assessed as cell growth at 10^-8 M by sulforhodamine B assay; conditions: read-out: Activity
# [2] = Growth inhibition of human HCC2998 cells assessed as cell growth at 10^-8 M by sulforhodamine B assay; conditions: HCC 2998, read-out: Activity
# COLO 205 = assay: Growth inhibition of human COLO205 cells assessed as cell growth at 10^-8 M by sulforhodamine B assay; conditions: read-out: Activity
# NCI-H460 [3] = assay: Growth inhibition of human NCI-H460 cells assessed as cell growth at 10^-8 M by sulforhodamine B assay; conditions: read-out: Activity
# NCI-H322M = assay: Growth inhibition of human NCI-H322M cells assessed as cell growth at 10^-8 M by sulforhodamine B assay; conditions: read-out: Activity
# MOLT-4 = assay: Growth inhibition of human MOLT4 cells assessed as cell growth at 10^-8 M by sulforhodamine B assay; conditions: read-out: Activity
# [4] = Growth inhibition of human Hs 578T cells by sulforhodamine B assay
# DU-145 = assay: Growth inhibition of human DU145 cells by sulforhodamine B assay
# SK-MEL-5 = assay: Growth inhibition of human SK-MEL-5 cells by sulforhodamine B assay
# U-251 = assay: Growth inhibition of human U251 cells by sulforhodamine B assay
# SF-295 = assay: Growth inhibition of human SF295 cells by sulforhodamine B assay
# PC-3 [5] = assay: Growth inhibition of human PC3 cells assessed as cell growth at 10^-4 M by sulforhodamine B assay; conditions: read-out: Activity
# SK-MEL-28 = assay: Growth inhibition of human SK-MEL-28 cells assessed as cell growth at 10^-4 M by sulforhodamine B assay; conditions: read-out: Activity
# LOX IMVI [6] = assay: Growth inhibition of human LOXIMVI cells assessed as cell growth at 10^-4 M by sulforhodamine B assay; conditions: read-out: Activity
# SN12C = assay: Growth inhibition of human SN12C cells assessed as cell growth at 10^-6 M by sulforhodamine B assay; conditions: read-out: Activity
# OVCAR-8 = assay: Growth inhibition of human OVCAR8 cells assessed as cell growth at 10^-6 M by sulforhodamine B assay; conditions: read-out: Activity
# SF-539 = assay: Growth inhibition of human SF539 cells assessed as cell growth at 10^-6 M by sulforhodamine B assay; conditions: read-out: Activity
# HCT-116 [7] = assay: Growth inhibition of human HCT116 cells assessed as cell growth at 10^-6 M by sulforhodamine B assay; conditions: read-out: Activity
# RPMI-8226 = assay: Growth inhibition of human RPMI8226 cells assessed as cell growth at 10^-6 M by sulforhodamine B assay; conditions: read-out: Activity
# K562 [8] = assay: Growth inhibition of human K562 cells assessed as cell growth at 10^-6 M by sulforhodamine B assay; conditions: read-out: Activity
# RXF 393 [9] = assay: Growth inhibition of human RXF393 cells assessed as cell growth at 10^-7 M by sulforhodamine B assay; conditions: read-out: Activity
# SK-OV-3 = assay: Growth inhibition of human SKOV3 cells assessed as cell growth at 10^-7 M by sulforhodamine B assay; conditions: read-out: Activity
# [10] = Growth inhibition of human NCI-ADR-RES cells assessed as cell growth at 10^-7 M by sulforhodamine B assay; conditions: read-out: Activity
# LOX IMVI [11] = assay: Growth inhibition of human LOXIMVI cells assessed as cell growth at 10^-7 M by sulforhodamine B assay; conditions: read-out: Activity
# KM12 = assay: Growth inhibition of human KM12 cells assessed as cell growth at 10^-7 M by sulforhodamine B assay; conditions: read-out: Activity
# NCI-H460 [12] = assay: Growth inhibition of human NCI-H460 cells assessed as cell growth at 10^-7 M by sulforhodamine B assay; conditions: read-out: Activity
# NCI-H522 = assay: Growth inhibition of human NCI-H522 cells assessed as cell growth at 10^-7 M by sulforhodamine B assay; conditions: read-out: Activity
# K562 [13] = assay: Growth inhibition of human K562 cells assessed as cell growth at 10^-7 M by sulforhodamine B assay; conditions: read-out: Activity
# T47D = assay: Growth inhibition of human T47D cells assessed as cell growth at 10^-8 M by sulforhodamine B assay; conditions: read-out: Activity
# PC-3 [14] = assay: Growth inhibition of human PC3 cells assessed as cell growth at 10^-8 M by sulforhodamine B assay; conditions: read-out: Activity
# RXF 393 [15] = assay: Growth inhibition of human RXF393 cells assessed as cell growth at 10^-8 M by sulforhodamine B assay; conditions: read-out: Activity
# ACHN = assay: Growth inhibition of human ACHN cells assessed as cell growth at 10^-8 M by sulforhodamine B assay; conditions: read-out: Activity
# [16] = Growth inhibition of human NCI-ADR-RES cells assessed as cell growth at 10^-8 M by sulforhodamine B assay; conditions: read-out: Activity
# [17] = read-out: LC50 (the source's name)
# [18] = read-out: pLC50 (the source's name) (converted)
smiles,measurement,setting,value
CC1(C)C[C@@H](O)[C@]2(C(=O)O)CC[C@]3(C)C(=CC[C@@H]4[C@@]5(C)C/C(=C\C=C\c6ccccc6)C(=O)C(C)(C)[C@@H]5CC[C@]43C)[C@@H]2C1,GI50,HCT-116 [1]; read-out: GI50,2.89 µM
same,LC50,HCT-116 [1]; read-out: LC50,82.7 µM
same,TGI,HCT-116 [1]; read-out: TGI,11.2 µM
same,GI50,HCT-116 [1]; read-out: pGI50 (converted),2.88 µM
same,LC50,HCT-116 [1]; read-out: pLC50 (converted),83.2 µM
same,TGI,HCT-116 [1]; read-out: pTGI (converted),11.2 µM
same,GI50,HOP-62; read-out: GI50,4.72 µM
same,LC50 (concentration killing 50% of cells),HOP-62; read-out: LC50,83.5 µM
same,TGI,HOP-62; read-out: TGI,21.2 µM
same,GI50,HOP-62; read-out: pGI50 (converted),4.68 µM
same,LC50 (concentration killing 50% of cells),HOP-62; read-out: pLC50 (converted),83.2 µM
same,TGI,HOP-62; read-out: pTGI (converted),21.4 µM
same,GI50,HOP-92; read-out: GI50,1.92 µM
same,CC50,HOP-92; [17],36.6 µM
same,TGI,HOP-92; read-out: TGI,6.67 µM
same,GI50,HOP-92; read-out: pGI50 (converted),1.91 µM
same,CC50,HOP-92; [18],36.3 µM
same,TGI,HOP-92; read-out: pTGI (converted),6.61 µM
same,growth at 0.01 µM,MDA-MB-435,98%
same,growth at 0.01 µM,Malme-3M,92%
same,growth at 0.01 µM,SW-620,99%
same,growth at 0.01 µM,HCT-15,97%
same,growth at 0.01 µM,[2],92%
same,growth at 0.01 µM,COLO 205,103%
same,growth at 0.01 µM,NCI-H460 [3],102%
same,growth at 0.01 µM,NCI-H322M,98%
same,growth at 0.01 µM,MOLT-4,104%
same,GI50,[4]; read-out: GI50,3.29 µM
same,CC50,[4]; [17],> 100 µM
same,TGI,[4]; read-out: TGI,20.6 µM
same,GI50,[4]; read-out: pGI50 (converted),3.31 µM
same,CC50,[4]; [18],> 100 µM
same,TGI,[4]; read-out: pTGI (converted),20.4 µM
same,GI50,DU-145; read-out: GI50,4.23 µM
same,CC50,DU-145; [17],41.7 µM
same,TGI,DU-145; read-out: TGI,14.9 µM
same,GI50,DU-145; read-out: pGI50 (converted),4.27 µM
same,CC50,DU-145; [18],41.7 µM
same,TGI,DU-145; read-out: pTGI (converted),14.8 µM
same,GI50,SK-MEL-5; read-out: GI50,1.76 µM
same,CC50,SK-MEL-5; [17],6.11 µM
same,TGI,SK-MEL-5; read-out: TGI,3.28 µM
same,GI50,SK-MEL-5; read-out: pGI50 (converted),1.74 µM
same,CC50,SK-MEL-5; [18],6.17 µM
same,TGI,SK-MEL-5; read-out: pTGI (converted),3.31 µM
same,GI50,U-251; read-out: GI50,2.58 µM
same,CC50,U-251; [17],43.2 µM
same,TGI,U-251; read-out: TGI,10.1 µM
same,GI50,U-251; read-out: pGI50 (converted),2.57 µM
same,CC50,U-251; [18],43.7 µM
same,TGI,U-251; read-out: pTGI (converted),10.2 µM
same,GI50,SF-295; read-out: GI50,2.4 µM
same,CC50,SF-295; [17],49.8 µM
same,TGI,SF-295; read-out: TGI,7.56 µM
same,GI50,SF-295; read-out: pGI50 (converted),2.4 µM
same,CC50,SF-295; [18],50.1 µM
same,TGI,SF-295; read-out: pTGI (converted),7.59 µM
same,growth at 100 µM,PC-3 [5],-67%
same,growth at 100 µM,SK-MEL-28,-80%
same,growth at 100 µM,LOX IMVI [6],-90%
same,growth at 1 µM,SN12C,91%
same,growth at 1 µM,OVCAR-8,93%
same,growth at 1 µM,SF-539,90%
same,growth at 1 µM,HCT-116 [7],90%
same,growth at 1 µM,RPMI-8226,92%
same,growth at 1 µM,K562 [8],98%
same,growth at 0.1 µM,RXF 393 [9],94%
same,growth at 0.1 µM,SK-OV-3,102%
same,growth at 0.1 µM,[10],108%
same,growth at 0.1 µM,LOX IMVI [11],95%
same,growth at 0.1 µM,KM12,99%
same,growth at 0.1 µM,NCI-H460 [12],101%
same,growth at 0.1 µM,NCI-H522,94%
same,growth at 0.1 µM,K562 [13],102%
same,growth at 0.01 µM,T47D,101%
same,growth at 0.01 µM,PC-3 [14],97%
same,growth at 0.01 µM,RXF 393 [15],94%
same,growth at 0.01 µM,ACHN,97%
same,growth at 0.01 µM,[16],107%
